2 molecules from patent US7714014B2, “Targeting GLI proteins in human cancer by small molecules” (The Regents of the University of California, priority 2005, dated 2010) can be followed below.

The test system of series [1] is L3.6s1 (pancreatic cancer). Description: Apoptosis analysis (Annexin V FITC, flow cytometry). To be noted: 3 days. Type of series: cell-based, human. The procedure: (§1) Apoptosis was analyzed by using an Annexin V FITC Apoptosis Detection Kit (Biosource, Camarillo, Calif.), according to the manufacturer's protocol. After treatment with different small molecule compounds at various concentrations for about 3 days, cells were harvested by trypsinization, stained and immediately analyzed by flow cytometry (FACScan; Decton Dickinson, Franklin Lake, N.J.). Early apoptotic cells with exposed phosphatidylserine but intact cell membranes will bind to Annexin V-FITC, but not propidium iodide (PI). Cells in necrotic or late apoptotic stages will be labeled with both Annexin V-FITC and PI. “% apoptotic cells” or “% apoptosis” refers to the combined early and late apoptotic cells.
(§2) Flow cytometry was also used to examine apoptosis induced by molecule compounds FN1-5 and FN1-8 in the human pancreatic cancer cell lines L3.6sl, Panc4.21, BxPC3, and CFPAC-1 cells. […] For example, app.

Series [2] has as its system BxPC3 (pancreatic cancer). Described as above. Type of series: cell-based, human. To be noted: 3 days. How it is done:
as §1, §2

Series [3] relates to Panc4.21 (pancreatic cancer). The series is described as above. Type of series: cell-based, human. To be noted: 3 days. The procedure:
as §1, §2

Series [4] relates to colon cancer cell line HT29. Description: Cell survival assay (crystal violet). Type of series: cell-based, human. To be noted: FN1-8 even at higher doses (50 μM), data not shown. How it is done:
(§3) Typically, the small molecule compounds of the present invention were dissolved in DMSO at a concentration of 30 mM. The small molecule compounds were then tested under cell culture conditions at different concentrations ranging from 0, 10, 30, 50, to 100 uM. To determine cell survival after treatment, the cells were incubated with the small molecule compounds in 6-well plates for about 3 days. After removal of the cell culture medium, 1-ml of 0.5% crystal violet solution (prepared in 20% ethanol and 20% methanol) was added to stain the cells for 5 min. Then the crystal violet solution was rinsed clean with tap water. Cell survival was estimated based on the density of crystal stained plates.

Series [5] has as its system NSCLC cell lines H460, H838, H1975, H1650, and H1703. Description: Cell survival assay (crystal violet). It counts as cell-based, human. To be noted: for cell killing: data not shown. The procedure: as §3
Series [6] relates to normal human muscle cells. Description: Cell survival assay (crystal violet). It counts as cell-based. To be noted: 1, 10, 30, and 50 μM, 3 days. The procedure:
as §3
The cell killing effect of small molecule compounds FN1-8, FN1-7, and FN1-5 at different doses was examined in normal human muscle cells. […] Normal muscle cells were plated in 6-well plates and incubated with 1, 10, 30, and 50 μM of each compound for 3 days, in the same manner as described herein for similar other experiments. […] Both FN1-5 and FN1-8 seem to be specific in killing cancer cells.

The subject of series [7] is human Gremlin promoter in HEK 293T cells. Description: Gremlin promoter-luciferase reporter assay. Type of series: cell-based. To be noted: 30 μM, 18-24 hours. How it is done: One day before transfection, cells (1×10^5) were plated in 12-well plates with growth medium without antibiotics. When cells reached 80-90% of confluence they were co-transfected using 0.5 μg of each promoter construct in pGL3Basic vector and 0.025 μg pRL-TK Vector (Promega; Madison, Wis.) containing Renilla Luciferase as an internal control for the transformation efficiency. Lipofectamine 2000™ (Invitrogen Life Technologies) was used to mediate transfection for about 6 hours. Then the medium was replaced with fresh medium containing various small molecule compounds at a concentration of 30 μM, and the resulting cells were cultured for an additional 18-24 hours and subjected to luciferase assay. Briefly, cells were lysed in a lysis buffer and Firefly and Renilla Luciferase activities in cells of each well, were measured using Dual-Luciferase Assay System (Promega) and an illuminometer. The measured luciferase activities were normalized to pRL-TK Vector activity and were given relative to the basal activity of empty pGL3-Basic Vector, which was set to unity. The data shown represent mean values (±S.D.). All measurements were performed in triplicate and repeated in at least three independent experiments. […]

Series [8] concerns human ovarian cancer cell line AZ23247. Description: Cell survival assay (crystal violet). To be noted: AZ23247, 30 μM and 50 μM. Type of series: cell-based. The procedure:
as §3
The cell-based cytotoxicity assay described herein was used to determine the effect of small molecule compounds FN1-5 and FN1-8 in the human ovarian cancer cell line AZ23247. Viability of AZ23247 cells was analyzed after treatment with 10, 30 and 50 μM FN1-5 or FN1-8.

Take `O=C(NCCCCCO)C1C(c2ccccc2)=NN(c2ccccc2)C1c1ccccc1` (stereo not drawn) [FN1-5, N-(5-Hydroxypentyl)-1,3,5-triphenyl-4,5-dihydro-pyrazole-4-carboxyamide]: the “% of apoptotic cells” value in series [1] (L3.6s1, 30 μM) worked out at 27.5%; in series [1] (L3.6s1, 50 μM), 44.8%; in series [2] (BxPC3, 30 μM), 11.2%; in series [2] (BxPC3, 50 μM), 30.0%; in series [3] (Panc4.21, 30 μM) it was 9.3%; in series [3] (Panc4.21, 50 μM), 10.3%. Also, in series [3] (Panc4.21, 30 and 50 μM), the apoptosis induction result is recorded as “did not seem to induce apoptosis”. Further, the cell killing entry in series [4], in series [5] and in series [8] was “dramatic cell killing” in each case. Besides, the “cell killing effect in normal cells” value in series [6] was “No noticeable cell killing effect”. The Gremlin promoter activity result in series [7] was “inactive”.
`O=C(NCCc1ccc(O)cc1)C1C(c2ccccc2)=NN(c2ccccc2)C1c1ccccc1` (stereo not drawn) [FN1-8, N-(2-(4-Hydroxyphenyl)ethyl)-1,3,5-triphenyl-4,5-dihydro-pyrazole-4-carboxyamide]: the “% of apoptotic cells” value amounted to 12.8% in series [1] (L3.6s1, 10 μM); 25.1% in series [1] (L3.6s1, 30 μM); 45.7% in series [1] (L3.6s1, 50 μM); 11.4% in series [2] (BxPC3, 10 μM); 20.4% in series [2] (BxPC3, 30 μM); 77.4% in series [2] (BxPC3, 50 μM). Further, the “% of apoptotic cells” value in series [3] (Panc4.21, 10 μM) was 11.2%; in series [3] (Panc4.21, 30 μM), 10.6%; in series [3] (Panc4.21, 50 μM), 23.4%. Moreover, the cell killing entry in series [4] is on record as “no cell killing”; in series [5], “dramatic cell killing”; in series [8], “dramatic cell killing”. In addition, the “cell killing potency compared with FN1-5” value in series [5] (same concentrations) was “more potent than FN1-5”. Also, the “cell killing effect in normal cells” value in series [6] is recorded as “No noticeable cell killing effect”. Besides, the Gremlin promoter activity result in series [7] was “inactive”.
